In paper PMC3532212 (PLoS ONE, 2012):
“Also recorded” adds a separate entry of the source.

Experiments:
Type in all cases: in vivo
anesthetized rats = test: Anesthetized rat cardiovascular study (mean arterial pressure, heart rate)
Protocol: The cardiovascular effects of FTY720 and BAF312 were tested in anesthetized rats (180–200 g). In brief, male Sprague Dawley rats (Charles River) were anesthetized with Inactin (110 mg/kg i.p.) and a tracheotomy performed. The femoral artery and veins were catheterized for measurement of mean arterial pressure and heart rate, collection of blood samples at 20-min intervals (0.2 mL/sample), and for compound infusion/hydration as previously described, [24]; blood samples were also withdrawn in vehicle-treated control rats. FTY720, infused as a hydrochloride salt (0.1, 0.3, 1.0 mg/kg/20-min free base equivalent solubilized in a 100% PEG-400 vehicle), or BAF312 (0.5, 1.5, 5.0 mg/kg/20-min solubilized in a 100% PEG-400 vehicle) were administered via three escalating 20-min infusions (0.011 mL/min) followed by a 1-hr post-treatment period. A blood sample was withdrawn at 20, 40, 60, and 120-minutes for analysis of plasma concentrations of the parent compound, and in the case of FTY720, also the phosphorylated metabolite, (S)-FTY720-P. Statistical significance (p<0.05) was based on a t-test comparing treatment change from baseline (baseline was defined as the period from −30 to 0 minutes) vs. vehicle controls change from baseline at each timepoint without adjustment for multiple comparisons. In a separate group of anesthetized rats in which left ventricular (LV) contractility was also recorded with a Millar pressure transducer introduced into the left ventricle, BAF312 was infused in the same dosing regimen as the studies described above (0.5, 1.5, 5.0 mg/kg/20-min solubilized in a 100% PEG-400 vehicle) and effects on LV dP/dtmax were recorded.

[1] = tested on: conscious, telemetry-instrumented rats; test: Telemetry-instrumented conscious rats, repeat-dosing hemodynamics; conditions: conscious rat; for mean arterial pressure, average change in 24-mean values: 14-days of treatment
Protocol: Mean arterial pressure was assessed in conscious, freely moving male Sprague Dawley rats (n = 6–8/group; Charles River) instrumented with telemetry transmitters (DSI-Ponemah) and housed in metabolism cages as previously described, [26]. Tested compounds were solubilized in a 0.5% Methylcellulose/0.015% Tween 80 vehicle that was also dosed alone (p.o./QD, 5 mL/kg) as a control in the study. FTY720 was administered p.o. at 0.3, 1.0, 3.0, 10.0 mg/kg p.o. as a single dose or p.o./QD at 0.5, 1.5, and 5.0 mg/kg in a chronic study. […] Mean arterial pressure and heart rate are shown as 1-hr and/or 24-hr mean values±SEM as described in the results. Blood samples in satellite rats were withdrawn at various timepoints as described in the results for analysis of plasma concentrations of the parent compound and, in the case of FTY720, also the phosphorylated metabolite, (S)-FTY720-P. Statistical analysis for the single-dose acute studies was based on one-way ANOVA to compare the treatment groups vs. vehicle for each time period after dosing (0–24 hrs, 24–48 hrs, and 48–72 hrs); statistical significance (p<0.05) was detected by Dunnett’s post-hoc test to compare treatment with vehicle controls. The statistical analysis in the chronic studies were based on one-way ANOVA with repeated measures to compare the treatment arms; statistical significance (p<0.05) was detected by Dunnett’s post-hoc test to compare treatment with vehicle controls.

[2] = Plasma concentrations after a single oral dose in rats; conditions: rat; for Plasma concentration: mean±SEM
Protocol: Mean arterial pressure was assessed in conscious, freely moving male Sprague Dawley rats (n = 6–8/group; Charles River) instrumented with telemetry transmitters (DSI-Ponemah) and housed in metabolism cages as previously described, [26]. Tested compounds were solubilized in a 0.5% Methylcellulose/0.015% Tween 80 vehicle that was also dosed alone (p.o./QD, 5 mL/kg) as a control in the study. FTY720 was administered p.o. at 0.3, 1.0, 3.0, 10.0 mg/kg p.o. as a single dose or p.o./QD at 0.5, 1.5, and 5.0 mg/kg in a chronic study. BAF312 was administered p.o/QD at 0.3, 3.0, and 30 mg/kg as a single dose and in a chronic study. Mean arterial pressure and heart rate are shown as 1-hr and/or 24-hr mean values±SEM as described in the results. Blood samples in satellite rats were withdrawn at various timepoints as described in the results for analysis of plasma concentrations of the parent compound and, in the case of FTY720, also the phosphorylated metabolite, (S)-FTY720-P. Statistical analysis for the single-dose acute studies was based on one-way ANOVA to compare the treatment groups vs. vehicle for each time period after dosing (0–24 hrs, 24–48 hrs, and 48–72 hrs); statistical significance (p<0.05) was detected by Dunnett’s post-hoc test to compare treatment with vehicle controls. The statistical analysis in the chronic studies were based on one-way ANOVA with repeated measures to compare the treatment arms; statistical significance (p<0.05) was detected by Dunnett’s post-hoc test to compare treatment with vehicle controls.

SMILES: CCc1cc(/C(C)=N/OCc2ccc(C3CCCCC3)c(C(F)(F)F)c2)ccc1CN1CC(C(=O)O)C1 [BAF312]
- effect on mean arterial pressure (anesthetized rats; anesthetized rat, BAF312 0.5, 1.5, 5.0 mg/kg/20-min i.v.): no effect
- time heart rate remained statistically reduced (anesthetized rats; anesthetized rat, BAF312 i.v. infusion): 30 min
- heart rate, change from baseline (anesthetized rats; anesthetized rat, BAF312 i.v., 10-min into the first infusion period (0.5 mg/kg/20 min), vehicle −6±4): −51±8 beats/min
- heart rate vs vehicle (anesthetized rats; anesthetized rat, BAF312 i.v., latter half of the 60-min infusion): not different from vehicle controls
- effect on heart rate of acute i.v. infusion (anesthetized rats; anesthetized rats, FTY720 0.1, 0.3, 1.0 mg/kg/20 min or BAF312 0.5, 1.5, 5.0 mg/kg/20 min): acute bradycardia
- mean arterial pressure, average change in 24-mean values ([1]; BAF312 0.3 mg/kg/d p.o./QD): 3.0±0.5 mmHg
- 24-hr mean change in heart rate ([1]; BAF312 3 mg/kg dose group (so in the source), 14-day study): −2±2 beats/min
- mean arterial pressure, average change in 24-mean values ([1]; BAF312 3.0 mg/kg/d p.o./QD): 1.1±0.5 mmHg
- 24-hr mean change in heart rate ([1]; BAF312 10 mg/kg dose group (so in the source), 14-day study): −2±3 beats/min
- 24-hr mean change in heart rate ([1]; BAF312 30 mg/kg dose group, 14-day study): −2±4 beats/min
- mean arterial pressure, average change in 24-mean values ([1]; BAF312 30 mg/kg/d p.o./QD): 0.1±0.5 mmHg
- effect on blood pressure / mean arterial pressure during repeat dosing ([1]; BAF312 0.3, 3.0, 30.0 mg/kg/d p.o.): no significant effect; also recorded: no significant increase
- bradycardia during repeat dosing ([1]; BAF312 any dose group, 14-day study): no bradycardia was observed

SMILES: CCCCCCCCc1ccc(CC[C@](N)(CO)COP(=O)(O)O)cc1 [FTY720-P]
- Plasma concentration at Tmax ([2]; FTY720 0.3 mg/kg single oral dose): 83 ± 3 nM
- Plasma concentration ([2]; FTY720 0.3 mg/kg single oral dose, 4 hr post-dose): 66 ± 3 nM
- Plasma concentration ([2]; FTY720 0.3 mg/kg single oral dose, 8 hr post-dose): 83 ± 3 nM
- Plasma concentration ([2]; FTY720 0.3 mg/kg single oral dose, 24 hr post-dose): 43 ± 7 nM
- Plasma concentration ([2]; FTY720 0.3 mg/kg single oral dose, 48 hr post-dose): 29 ± 3 nM
- Plasma concentration ([2]; FTY720 0.3 mg/kg single oral dose, 72 hr post-dose): 4 ± 4 nM
- Plasma concentration at Tmax ([2]; FTY720 1.0 mg/kg single oral dose): 263 ± 13 nM
- Plasma concentration ([2]; FTY720 1.0 mg/kg single oral dose, 4 hr post-dose): 172 ± 16 nM
- Plasma concentration ([2]; FTY720 1.0 mg/kg single oral dose, 8 hr post-dose): 263 ± 13 nM
- Plasma concentration ([2]; FTY720 1.0 mg/kg single oral dose, 24 hr post-dose): 113 ± 2 nM
- Plasma concentration ([2]; FTY720 1.0 mg/kg single oral dose, 48 hr post-dose): 81 ± 11 nM
- Plasma concentration ([2]; FTY720 1.0 mg/kg single oral dose, 72 hr post-dose): 26 ± 4 nM
- Plasma concentration at Tmax ([2]; FTY720 3.0 mg/kg single oral dose): 360 ± 55 nM
- Plasma concentration ([2]; FTY720 3.0 mg/kg single oral dose, 4 hr post-dose): 285 ± 29 nM
- Plasma concentration ([2]; FTY720 3.0 mg/kg single oral dose, 8 hr post-dose): 339 ± 36 nM
- Plasma concentration ([2]; FTY720 3.0 mg/kg single oral dose, 24 hr post-dose): 360 ± 55 nM
- Plasma concentration ([2]; FTY720 3.0 mg/kg single oral dose, 48 hr post-dose): 152 ± 14 nM
- Plasma concentration ([2]; FTY720 3.0 mg/kg single oral dose, 72 hr post-dose): 165 ± 2 nM
- Plasma concentration at Tmax ([2]; FTY720 10 mg/kg single oral dose): 1090 ± 124 nM
- Plasma concentration ([2]; FTY720 10.0 mg/kg single oral dose, 4 hr post-dose): 559 ± 159 nM
- Plasma concentration ([2]; FTY720 10.0 mg/kg single oral dose, 8 hr post-dose): 1145 ± 505 nM
- Plasma concentration ([2]; FTY720 10.0 mg/kg single oral dose, 24 hr post-dose): 1090 ± 124 nM
- Plasma concentration ([2]; FTY720 10.0 mg/kg single oral dose, 48 hr post-dose): 455 ± 57 nM
- Plasma concentration ([2]; FTY720 10.0 mg/kg single oral dose, 72 hr post-dose): 629 ± 157 nM
- time post-dose through which plasma values were detectable ([2]; FTY720 single oral dose): at least 72 hrs
